Results: PubChem BioAssay (NCI)
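Five concentrations, 48 hours, 96-well plates. GI50 marks 50% less growth. TGI denotes the concentration required for complete inhibition of growth.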

Key:
Experiment in all cases: NCI anticancer screen, dose series, 48 h
[1] = tested on: A549 NSCLC
[2] = tested on: UO-31 renal
[3] = tested on: HCT-15 colon
[4] = tested on: SK-MEL-2 melanoma
[5] = tested on: BT-549 breast
[6] = tested on: RXF 393 renal
[7] = tested on: OVCAR-3 ovarian
[8] = tested on: IGROV1 ovarian
[9] = tested on: A498 renal
[10] = tested on: EKVX NSCLC
[11] = tested on: NCI-H460 lung
[12] = tested on: NCI-H522 lung
[13] = tested on: U251 CNS
[14] = tested on: MDA-MB-468 breast
[15] = tested on: SNB-75 CNS
[16] = tested on: HCC-2998 colon
[17] = tested on: SF-268 CNS
[18] = tested on: HCT-116 colon
[19] = tested on: ACHN renal
[20] = tested on: HOP-62 NSCLC
[21] = tested on: HOP-92 NSCLC
[22] = tested on: UACC-62 melanoma
[23] = tested on: HS 578T breast
[24] = tested on: SF-295 CNS
[25] = tested on: NCI/ADR-RES ovarian
[26] = tested on: NCI-H226 lung
[27] = tested on: SNB-19 CNS
[28] = tested on: MALME-3M melanoma
[29] = tested on: HT29 colon
[30] = tested on: SK-MEL-28 melanoma
[31] = tested on: TK-10 renal
[32] = tested on: CCRF-CEM leukemia
[33] = tested on: OVCAR-5 ovarian
[34] = tested on: K-562 leukemia
[35] = tested on: COLO 205 colon
[36] = tested on: 786-0 renal
[37] = tested on: MOLT-4 leukemia
[38] = tested on: MDA-MB-435
[39] = tested on: MCF7 breast
[40] = tested on: PC-3 prostate
[41] = tested on: M14 melanoma
[42] = tested on: OVCAR-4 ovarian
[43] = tested on: SK-MEL-5 melanoma
[44] = tested on: CAKI-1 renal
[45] = tested on: KM12 colon
[46] = tested on: LOX IMVI melanoma
[47] = tested on: UACC-257 melanoma
[48] = tested on: SW-620 colon
[49] = tested on: NCI-H23 lung
[50] = tested on: MDA-MB-231 breast
[51] = tested on: HL-60(TB) leukemia
[52] = tested on: OVCAR-8 ovarian
[53] = tested on: SF-539 CNS
[54] = tested on: T-47D breast
[55] = tested on: SK-OV-3 ovarian
[56] = tested on: DU-145 prostate
[57] = tested on: RPMI-8226 leukemia
[58] = tested on: SN12C renal
[59] = tested on: SR leukemia

O=C(Nc1cccc(C(F)(F)F)c1)c1cncc(C#Cc2cnc3ccc(N4CCOCC4)nn23)c1
GI50 [1]: 8.38 µM | TGI [1]: > 86.8 µM | GI50 [2]: 3.31 µM | TGI [2]: 19.2 µM | GI50 [3]: 6.58 µM | TGI [3]: 51.2 µM | GI50 [4]: 3.87 µM | TGI [4]: 13.6 µM | GI50 [5]: 5.13 µM | TGI [5]: 26.3 µM | GI50 [6]: 2.36 µM | TGI [6]: 6.36 µM | GI50 [7]: 8.91 µM | TGI [7]: 52.6 µM | GI50 [8]: 2.08 µM | TGI [8]: 12.4 µM | GI50 [9]: 5.53 µM | TGI [9]: 16.6 µM | GI50 [10]: 4.49 µM | TGI [10]: 21 µM | GI50 [11]: 11 µM | TGI [11]: 27.4 µM | GI50 [12]: 9.08 µM | TGI [12]: 24.5 µM | GI50 [13]: 15.4 µM | TGI [13]: 67.2 µM | GI50 [14]: 12.8 µM | TGI [14]: 27 µM | GI50 [15]: 1.76 µM | TGI [15]: 7.71 µM | GI50 [16]: 5.97 µM | TGI [16]: 35.6 µM | GI50 [17]: 4.58 µM | TGI [17]: 34.8 µM | GI50 [18]: 1.92 µM | TGI [18]: 13.4 µM | GI50 [19]: 3.67 µM | TGI [19]: 42.3 µM | GI50 [20]: 2.39 µM | TGI [20]: 35.4 µM | GI50 [21]: 1.24 µM | TGI [21]: 3.47 µM | GI50 [22]: 2.74 µM | TGI [22]: 13.4 µM | GI50 [23]: 1.62 µM | TGI [23]: 5.45 µM | GI50 [24]: 11 µM | TGI [24]: 29.8 µM | GI50 [25]: 9.21 µM | TGI [25]: 44.6 µM | GI50 [26]: 1.7 µM | TGI [26]: > 86.8 µM | GI50 [27]: 17.1 µM | TGI [27]: 49.8 µM | GI50 [28]: 4.24 µM | TGI [28]: 18.7 µM | GI50 [29]: 3.12 µM | TGI [29]: 20.8 µM | GI50 [30]: 4.85 µM | TGI [30]: 23 µM | GI50 [31]: 6.98 µM | TGI [31]: 51.9 µM | GI50 [32]: 5.21 µM | TGI [32]: 48.8 µM | GI50 [33]: 2.74 µM | TGI [33]: 38.6 µM | GI50 [34]: 1.89 µM | TGI [34]: > 86.8 µM | GI50 [35]: 3.2 µM | TGI [35]: 11.4 µM | GI50 [36]: 8.11 µM | TGI [36]: 42.9 µM | GI50 [37]: 14.6 µM | TGI [37]: > 86.8 µM | GI50 [38]: 4.33 µM | TGI [38]: 18.2 µM | GI50 [39]: 2.76 µM | TGI [39]: 26.4 µM | GI50 [40]: 10.8 µM | TGI [40]: 72.6 µM | GI50 [41]: 3.47 µM | TGI [41]: 14.8 µM | GI50 [42]: 15 µM | TGI [42]: > 86.8 µM | GI50 [43]: 11.2 µM | TGI [43]: 22.8 µM | GI50 [44]: 4.23 µM | TGI [44]: 47.4 µM | GI50 [45]: 0.00868 µM | TGI [45]: 14.1 µM | GI50 [46]: 2.55 µM | TGI [46]: 11.6 µM | GI50 [47]: 10.1 µM | TGI [47]: 56.6 µM | GI50 [48]: 3.03 µM | TGI [48]: > 86.8 µM | GI50 [49]: 2.38 µM | TGI [49]: 11.7 µM | GI50 [50]: 1.13 µM | TGI [50]: 9.33 µM | GI50 [51]: 0.834 µM | TGI [51]: 42.3 µM | GI50 [52]: 5.9 µM | TGI [52]: 82.2 µM | GI50 [53]: 1.11 µM | TGI [53]: 3.01 µM | GI50 [54]: 9.23 µM | TGI [54]: 62.1 µM | GI50 [55]: 7.01 µM | TGI [55]: 48.8 µM | GI50 [56]: 4.3 µM | TGI [56]: 80 µM | GI50 [57]: 12.5 µM | TGI [57]: 44.9 µM | GI50 [58]: 2.49 µM | TGI [58]: 25.3 µM | GI50 [59]: 2.94 µM | TGI [59]: > 86.8 µM
